Experimental data as given in publication PMC9558053, “Development of a novel high-throughput screen for the identification of new inhibitors of protein S-acylation” (The Journal of Biological Chemistry, 2022).

Legend:
Format in all cases: cell-based
Conditions in all cases: 25 μM
human zDHHC2 = target: T1, human zDHHC2 (Homo sapiens, UniProt Q9UIJ5); test: PSD95-mCHERRY S-acylation in HEK293T cells co-expressing zDHHC2
T1 construct: expressed in transfected cells; host or cells: HEK293T
T1 sequence (Q9UIJ5 1-367): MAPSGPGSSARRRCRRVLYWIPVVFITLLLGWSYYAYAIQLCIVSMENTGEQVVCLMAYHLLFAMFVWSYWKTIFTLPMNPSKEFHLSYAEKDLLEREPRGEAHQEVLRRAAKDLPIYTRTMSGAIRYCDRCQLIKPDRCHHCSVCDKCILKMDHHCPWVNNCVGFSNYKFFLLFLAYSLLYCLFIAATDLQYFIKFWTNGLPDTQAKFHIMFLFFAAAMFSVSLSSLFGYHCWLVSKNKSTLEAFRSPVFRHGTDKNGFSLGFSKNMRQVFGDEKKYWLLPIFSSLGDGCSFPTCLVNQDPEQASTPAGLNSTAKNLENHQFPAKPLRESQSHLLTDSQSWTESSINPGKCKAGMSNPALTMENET
From the text: (§1) PSD95 (postsynaptic density protein 95) is a major S-acylated protein that has a critical role in the maturation of excitatory neurons and in synaptic plasticity ([46], [47]). PSD95 can be S-acylated by zDHHC2, zDHHC3, zDHHC7, and zDHHC15 ([6]). […] We therefore tested the effects of TTZ-1 and TTZ-2 on the S-acylation of PSD95 mediated by zDHHC2, zDHHC3, zDHHC7, and zDHHC15. […] In contrast, zDHHC3 and zDHHC7 activities toward PSD95 were unaffected by TTZ-1 and TTZ-2, mirroring the data obtained with GFP-SNAP25 as a substrate.
(§2) Figure 9 Activity of TTZ-1 and TTZ-2 against PSD95 S-acylation mediated by human zDHHC2, zDHHC3, zDHHC7, and zDHHC15 expressed in mammalian cells. HEK293T cells were transfected with a plasmid encoding PSD95-mCHERRY together with either a control plasmid pEF-BOS-HA (pEF) or a plasmid encoding either HA-tagged human zDHHC2 (zD2), zDHHC3 (zD3), zDHHC7 (zD7), or zDHHC15 (zD15) for 24 h. Cells were then preincubated for 4 h with TTZ-1 or TTZ-2 (25 μM final) or DMSO control before metabolic labeling with 100 μM C16:0-azide for 4 h. Cells were lysed, and proteins having incorporated C16:0-azide were labeled by click chemistry with an alkyne-IR800 dye. […] The data were quantified, and the graphs below each set of membranes show mean ± SEM of normalized S-acylation of PSD95-mCHERRY (click signal/RFP signal). […]

human zDHHC3 = target: T2, human zDHHC3 (Homo sapiens, UniProt Q9NYG2); test: PSD95-mCHERRY S-acylation in HEK293T cells co-expressing zDHHC3
T2 construct: expressed in transfected cells; host or cells: HEK293T
T2 sequence (Q9NYG2 1-299): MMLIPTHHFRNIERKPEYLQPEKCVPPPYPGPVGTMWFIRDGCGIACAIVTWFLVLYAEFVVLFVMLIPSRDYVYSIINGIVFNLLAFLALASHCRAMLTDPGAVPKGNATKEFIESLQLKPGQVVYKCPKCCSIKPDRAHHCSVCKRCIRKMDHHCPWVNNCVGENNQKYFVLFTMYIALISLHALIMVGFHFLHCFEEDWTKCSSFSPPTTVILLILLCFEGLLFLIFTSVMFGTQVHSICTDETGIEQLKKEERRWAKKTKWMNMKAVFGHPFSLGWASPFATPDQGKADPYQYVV
From the text: as §1, §2

human zDHHC15 = target: T3, human zDHHC15 (Homo sapiens, UniProt Q96MV8); test: PSD95-mCHERRY S-acylation in HEK293T cells co-expressing zDHHC15
T3 construct: expressed in transfected cells; host or cells: HEK293T
T3 sequence (Q96MV8 1-337): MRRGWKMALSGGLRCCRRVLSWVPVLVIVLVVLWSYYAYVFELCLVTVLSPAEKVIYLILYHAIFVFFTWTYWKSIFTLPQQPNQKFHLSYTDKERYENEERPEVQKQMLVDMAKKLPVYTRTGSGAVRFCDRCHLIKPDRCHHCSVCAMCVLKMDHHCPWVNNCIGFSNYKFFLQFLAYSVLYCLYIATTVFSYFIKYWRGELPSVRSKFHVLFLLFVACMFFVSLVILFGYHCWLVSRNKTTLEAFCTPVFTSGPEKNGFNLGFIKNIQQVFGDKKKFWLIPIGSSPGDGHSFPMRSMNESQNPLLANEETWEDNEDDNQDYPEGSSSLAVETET
From the text: as §1, §2

Structure (SMILES) | PSD95-mCHERRY S-acylation by zDHHC2 (human zDHHC2) | PSD95-mCHERRY S-acylation by zDHHC3 (human zDHHC3) | PSD95-mCHERRY S-acylation by zDHHC15 (human zDHHC15)
O=C(Nc1cccc2c1OC(c1nnn[nH]1)CN2)c1ccc(OCCCCc2ccccc2)cc1 (stereo not drawn) [TTZ-2, N-(2-(1H-Tetrazol-5-yl)-3,4-dihydro-2H-benzo[b][1,4]oxazin-8-yl)-4-(4-phenylbutoxy)benzamide] | significantly inhibited | unaffected | significantly inhibited
CCCCCCCOc1ccc(C(=O)Nc2cccc3c2OC(c2nnn[nH]2)CN3)cc1 (stereo not drawn) [TTZ-1, N-(2-(1H-Tetrazol-5-yl)-3,4-dihydro-2H-benzo[b][1,4]oxazin-8-yl)-4-(heptyloxy)benzamide] | significantly inhibited | unaffected | significantly inhibited
